The values below come from patent US20230017045A1, “PYRIDINE AND PYRIMIDINE CARBOXYLATE HERBICIDES AND METHODS OF USE THEREOF” (Dow AgroSciences LLC, priority 2017, published 2023).

Read-outs that look alike come from different tables or passages of the source.

The assay concerns test plant species. The assay is described as follows: Post-emergent herbicidal activity test (greenhouse, foliar spray, visual growth reduction). It is filed as in vivo. The conditions noted are these: post-emergence, 336 h, 140 g ai/ha. The gist of the method: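 Seedlings were raised 7-21 d in a greenhouse under a 15 h photoperiod until the first or second true leaf. Each compound, dissolved in acetone:DMSO 97:3 and diluted into a surfactant-containing spray mixture, was then applied at 187 L/ha. Plants were subirrigated, and growth reduction was scored visually at 14 d.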

The mark [1] stands for this setting: ECHCG: barnyardgrass (Echinochloa crus-galli), 14 days after application, read-out: Visual Growth Reduction (%) 14 Days After Application, ECHCG.
Where [2] appears, read: IPOHE: ivy-leaf morning glory (Ipomoea hederacea), 14 days after application, read-out: Visual Growth Reduction (%) 14 Days After Application, IPOHE.
Setting [3] is: KCHSC: kochia (Bassia scoparia), 14 days after application, read-out: Visual Growth Reduction (%) 14 Days After Application, KCHSC.
[4] abbreviates: ORYSA: rice (Oryza sativa), 14 days after application, read-out: Visual Growth Reduction (%) 14 Days After Application, ORYSA.
The mark [5] stands for this setting: SETFA: giant foxtail (Setaria faberi), 14 days after application, read-out: Visual Growth Reduction (%) 14 Days After Application, SETFA.
[6] abbreviates: SORVU: grain sorghum (Sorghum vulgare), 14 days after application, read-out: Visual Growth Reduction (%) 14 Days After Application, SORVU.
The mark [7] stands for this setting: STEME: common chickweed (Stellaria media), 14 days after application, read-out: Visual Growth Reduction (%) 14 Days After Application, STEME.
[8] abbreviates: TRZAS: wheat, spring (Triticum aestivum), 14 days after application, read-out: Visual Growth Reduction (%) 14 Days After Application, TRZAS.
Setting [9] is: blackgrass (Alopecurus myosuroides), 14 Days After Application, read-out: Visual Growth Reduction (%) ALOMY.
The mark [10] stands for this setting: crabgrass (Digitaria sanguinalis), 14 Days After Application, read-out: Visual Growth Reduction (%) DIGSA.
Setting [11] is: lambsquarters (Chenopodium album), 14 Days After Application, read-out: Visual Growth Reduction (%) CHEAL.
The mark [12] stands for this setting: redroot pigweed (Amaranthus retroflexus), 14 Days After Application, read-out: Visual Growth Reduction (%) AMARE.
The mark [13] stands for this setting: wild oat (Avena fatua), 14 Days After Application, read-out: Visual Growth Reduction (%) AVEFA.
Setting [14] is: yellow nutsedge (Cyperus esculentus), 14 Days After Application, read-out: Visual Growth Reduction (%) CYPES.

Turning to `N#Cc1cc(-c2nc(C(=O)O)c(Cl)cc2F)c(Cl)cc1C(F)(F)F` [F329, 3-Chloro-6-(2-chloro-5-cyano-4-(trifluoromethyl)phenyl)-5-fluoropicolinic acid], the pest or weed control at 140 g/ha under setting [1] is 60 to 74%; the pest or weed control at 140 g/ha under setting [2] was in the range of 95 to 100%; the pest or weed control at 140 g/ha under setting [3] lay in the range of 60 to 74%; the pest or weed control at 140 g/ha under setting [4] lay within 0 to 29%; the pest or weed control at 140 g/ha under setting [5] lay within 85 to 94%; the pest or weed control at 140 g/ha under setting [6] lay in the range of 75 to 84%. Also, the pest or weed control at 140 g/ha under setting [7] was in the range of 0 to 29%; the pest or weed control at 140 g/ha under setting [8] lay within 45 to 59%; the pest or weed control at 140 g/ha under setting [9] is 0 to 29%; the pest or weed control at 140 g/ha (canada thistle (Cirsium arvense), 14 Days After Application, read-out: Visual Growth Reduction (%) CIRAR) was 85 to 94%; the pest or weed control at 140 g/ha under setting [10] is 75 to 84%; the pest or weed control at 140 g/ha under setting [11] is 75 to 84%. The pest or weed control at 140 g/ha is, setting by setting: under setting [12], 60 to 74%; under setting [13], 60 to 74%; under setting [14], 0 to 29%.

In the case of `COC(=O)c1nc(-c2ccc3ccsc3c2F)c(Cl)cc1Cl` [F330, Methyl 3,5-dichloro-6-(7-fluorobenzo[b]thiophen-6-yl)picolinate], the pest or weed control at 140 g/ha under setting [1] lay within 0 to 29%; the pest or weed control at 140 g/ha under setting [2] is 0 to 29%; the pest or weed control at 140 g/ha under setting [3] is 0 to 29%; the pest or weed control at 140 g/ha under setting [4] lay in the range of 0 to 29%; the pest or weed control at 140 g/ha under setting [5] fell in the range of 0 to 29%; the pest or weed control at 140 g/ha under setting [6] was in the range of 0 to 29%. For the same molecule, the pest or weed control at 140 g/ha was in the range of 0 to 29% under setting [7]; 0 to 29% under setting [8]; 0 to 29% under setting [9]; 0 to 29% under setting [10]; 0 to 29% under setting [11]; 0 to 29% under setting [12]. For the same molecule, the pest or weed control at 140 g/ha fell in the range of 0 to 29% under setting [13] and 30 to 44% under setting [14].

In the case of `COC(=O)c1nc(-c2cc(OC)c(C(F)(F)F)cc2Cl)c(F)cc1Cl` [F331, Methyl 3-chloro-6-(2-chloro-5-methoxy-4-(trifluoromethyl)phenyl)-5-fluoropicolinate], the pest or weed control at 140 g/ha is, setting by setting: under setting [1], 0 to 29%; under setting [2], 95 to 100%; under setting [3], 60 to 74%; under setting [4], 0 to 29%; under setting [5], 0 to 29%; under setting [6], 45 to 59%. The pest or weed control at 140 g/ha reads like this: under setting [7], 0 to 29%; under setting [8], 0 to 29%; under setting [9], 0 to 29%; under setting [10], 0 to 29%; under setting [11], 45 to 59%; under setting [12], 45 to 59%. Besides, the pest or weed control at 140 g/ha by setting is: under setting [13], 0 to 29%; under setting [14], 0 to 29%.

As to `COC(=O)c1nc(-c2cc(SC)c(C(F)(F)F)cc2Cl)c(F)cc1Cl` [F332, Methyl 3-chloro-6-(2-chloro-5-(methylthio)-4-(trifluoromethyl)phenyl) 5-fluoropicolinate], the pest or weed control at 140 g/ha by setting is: under setting [1], 0 to 29%; under setting [2], 0 to 29%; under setting [3], 30 to 44%; under setting [4], 0 to 29%; under setting [5], 0 to 29%; under setting [6], 0 to 29%. Moreover, the pest or weed control at 140 g/ha under setting [7] was in the range of 0 to 29%; the pest or weed control at 140 g/ha under setting [8] was in the range of 0 to 29%; the pest or weed control at 140 g/ha under setting [9] was 0 to 29%; the pest or weed control at 140 g/ha under setting [10] lay in the range of 0 to 29%; the pest or weed control at 140 g/ha under setting [11] was 0 to 29%; the pest or weed control at 140 g/ha under setting [12] lay within 0 to 29%. The pest or weed control at 140 g/ha is, setting by setting: under setting [13], 0 to 29%; under setting [14], 0 to 29%.

Take `COC(=O)c1nc(-c2cc3c(cc2OC)OC(F)(F)O3)c(F)cc1Cl` [F333, Methyl 3-chloro-6-(2,2-difluoro-6-methoxybenzo[d][1,3]dioxol-5-yl)-5-fluoropicolinate]: the pest or weed control at 140 g/ha by setting is: under setting [1], 30 to 44%; under setting [2], 95 to 100%; under setting [3], 30 to 44%; under setting [4], 0 to 29%; under setting [5], 30 to 44%; under setting [6], 85 to 94%. In addition, the pest or weed control at 140 g/ha is, setting by setting: under setting [7], 0 to 29%; under setting [8], 45 to 59%; under setting [9], 0 to 29%; under setting [10], 60 to 74%; under setting [11], 0 to 29%; under setting [12], 30 to 44%. In addition, the pest or weed control at 140 g/ha was in the range of 0 to 29% under setting [13] and 0 to 29% under setting [14].

`O=C(O)c1nc(-c2cc3c(cc2F)OC(F)(F)O3)c(F)cc1Cl` [F334, 3-Chloro-5-fluoro-6-(2,2,6-trifluorobenzo[d][1,3]dioxol-5-yl)picolinic acid]: the pest or weed control at 140 g/ha by setting is: under setting [1], 75 to 84%; under setting [2], 95 to 100%; under setting [3], 60 to 74%; under setting [4], 45 to 59%; under setting [5], 75 to 84%; under setting [6], 95 to 100%. For the same molecule, the pest or weed control at 140 g/ha runs as follows: under setting [7], 0 to 29%; under setting [8], 75 to 84%; under setting [9], 75 to 84%; under setting [10], 95 to 100%; under setting [11], 75 to 84%; under setting [12], 75 to 84%. The pest or weed control at 140 g/ha runs as follows: under setting [13], 60 to 74%; under setting [14], 60 to 74%.

Consider `COC(=O)c1nc(-c2cc3c(cc2F)OC(F)(F)O3)c(OC)cc1Cl` [F335, Methyl 3-chloro-5-methoxy-6-(2,2,6-trifluorobenzo[d][1,3]dioxol-5-yl)picolinate], for which the pest or weed control at 140 g/ha lay within 0 to 29% under setting [1]; 0 to 29% under setting [2]; 0 to 29% under setting [3]; 0 to 29% under setting [4]; 0 to 29% under setting [5]; 0 to 29% under setting [6]. Also, the pest or weed control at 140 g/ha under setting [7] is 0 to 29%; the pest or weed control at 140 g/ha under setting [8] lay in the range of 0 to 29%; the pest or weed control at 140 g/ha under setting [9] was 0 to 29%; the pest or weed control at 140 g/ha under setting [10] lay within 0 to 29%; the pest or weed control at 140 g/ha under setting [11] lay within 30 to 44%; the pest or weed control at 140 g/ha under setting [12] lay in the range of 0 to 29%. For the same molecule, the pest or weed control at 140 g/ha under setting [13] was in the range of 0 to 29% and the pest or weed control at 140 g/ha under setting [14] fell in the range of 0 to 29%.

With `COC(=O)c1nc(-c2cc3c(cc2F)OC(F)(F)O3)c(F)cc1OC` [F336, Methyl 5-fluoro-3-methoxy-6-(2,2,6-trifluorobenzo[d][1,3]dioxol-5-yl)picolinate], the pest or weed control at 140 g/ha runs as follows: under setting [1], 0 to 29%; under setting [2], 0 to 29%; under setting [3], 0 to 29%; under setting [4], 0 to 29%; under setting [5], 0 to 29%; under setting [6], 75 to 84%. In addition, the pest or weed control at 140 g/ha under setting [7] fell in the range of 0 to 29%; the pest or weed control at 140 g/ha under setting [8] lay in the range of 30 to 44%; the pest or weed control at 140 g/ha under setting [9] is 0 to 29%; the pest or weed control at 140 g/ha under setting [10] lay in the range of 60 to 74%; the pest or weed control at 140 g/ha under setting [11] is 30 to 44%; the pest or weed control at 140 g/ha under setting [12] lay in the range of 30 to 44%. The pest or weed control at 140 g/ha is, setting by setting: under setting [13], 0 to 29%; under setting [14], 0 to 29%.

For `COc1cc(-c2nc(C(=O)O)c(Cl)cc2F)c(Cl)cc1C(F)(F)F` [F337, 3-Chloro-6-(2-chloro-5-methoxy-4-(trifluoromethyl)phenyl)-5-fluoropicolinic acid], the pest or weed control at 140 g/ha under setting [1] is 60 to 74%; the pest or weed control at 140 g/ha under setting [2] lay within 95 to 100%; the pest or weed control at 140 g/ha under setting [3] was in the range of 85 to 94%; the pest or weed control at 140 g/ha under setting [4] is 0 to 29%; the pest or weed control at 140 g/ha under setting [5] lay in the range of 85 to 94%; the pest or weed control at 140 g/ha under setting [6] was 75 to 84%. For the same molecule, the pest or weed control at 140 g/ha runs as follows: under setting [7], 0 to 29%; under setting [8], 30 to 44%; under setting [9], 0 to 29%; under setting [10], 45 to 59%; under setting [11], 75 to 84%; under setting [12], 30 to 44%. Further, the pest or weed control at 140 g/ha fell in the range of 0 to 29% under setting [13] and 0 to 29% under setting [14].
